Measurements from patent publication US12037415B2, “Peptide and pharmaceutical composition for treating an eye disease comprising the same as an active pharmaceutical ingredient” (YuYu Pharma, Inc., priority 2017, dated 2024).
Non-standard residues stand in square brackets, D forms with d. Residues, ends and D or L forms follow the SMILES beside them. No end group written: not given here. ξ: configuration not given here. Pro(trans-4-F) = O=C(O)[C@@H]1C[C@@H](F)CN1; Pro(4,4-Me2) = CC1(C)CN[C@H](C(=O)O)C1; Pro(4-oxo) = O=C1CN[C@H](C(=O)O)C1; Hyp = O=C(O)[C@@H]1C[C@@H](O)CN1; Thr(3ξ) = CC(O)[C@H](N)C(=O)O; hSer = N[C@@H](CCO)C(=O)O

Columns and labels:
[1] = tested on: cornea of rats with dry eye syndrome (ELGE); experiment: Corneal permeability of fluorescent dye (corneal damage) in rats with ELGE-induced dry eye syndrome; type: in vivo, rat; details: 0.3% solution, day 14 after the administration
Excerpt: In order to evaluate the eye protection effect on dry eye syndrome by YDE-001 to YDE-028 prepared in Working Example 1, a total of 320 Sprague-Dawley-type male rats (OrientBio, Seungnam, Korea) were adapted for 7 days. Thereafter, dry eye syndrome was induced in 264 test rats through extraorbital lacrimal gland excision (hereinafter, ELGE). 8 test rats without the eye abnormality were subjected to a sham operation as a control group.
The rats were systemically anesthetized by inhaling a mixed gas of 2% to 3% of isoflurane (Hana Pharm. Co., Hwasung, Korea), 70% of N2O, and 28.6% of O2 using a rodent anesthesia machine (Surgivet, Waukesha, Wis., USA) and a ventilator (Model 687, Harvard Apparatus, Cambridge, UK). Thereafter, the extraorbital lacrimal gland located in the subdermal area above the masseter muscle and under the optic nerve was excised through a transverse incision in a size of 10 mm on the anterior part of the left ear tragus. The skin was sutured by a general method. […] After 6 days following the ELGE operation, confirmation was performed through the Schirmer test by measuring the amount of tear secretion whether dry eye syndrome had been induced. Meanwhile, each rat of the control group with the sham operation was checked for the presence and location of the extraorbital lacrimal gland through a skin incision, and the skin was then sutured without the excision thereof (FIG. 134).
In addition, in order to evaluate the eye protection effect on dry eye syndrome by YDE-029 to YDE-043 prepared in Working Example 1, a total of 200 Sprague-Dawley-type male rats (OrientBio, Seungnam, Korea) were adapted for 7 days. Dry eye syndrome was induced in 165 test rats through the ELGE. 8 test rats without the eye abnormality were subjected to the sham operation as a control group. The ELGE was carried out as described above.
(§1) For YDE-001 to YDE-028, YY-102 and the 28 YDE-series were each dissolved in physiological saline at a concentration of 3 mg/ml and administered at a dose of 5 μl/eye at 9:30 am and 3:30 pm daily for 14 days after 7 days from the ELGE operation for a total of 28 times. The DS solution was dissolved in physiological saline at a concentration of 30 mg/ml and administered at a dose of 5 μl/eye twice a day for 14 days after 7 days from the ELGE operation for a total of 28 times. For the sham control and the ELGE control groups, the same stimulation as the administration was applied. In order to prevent excessive eye dryness, the same volume of physiological saline was applied in the same manner in place of the test substances.
as §1, with “Further, For YDE-029” for “For YDE-001”, “Further, For YDE-029 to YDE-043,” for “For YDE-001 to YDE-028,”, “YDE-029 to YDE-043, YY-102 and” for “YDE-001 to YDE-028, YY-102 and”, “and the 15 YDE-series were” for “and the 28 YDE-series were”, “the test substances (FIG. 137).” for “the test substances.”
After YDE-001 to YDE-028 were each administered to the eyes […], the changes in the corneal permeability were checked.
In order to measure the corneal permeability, Zolethyl 50™ (Virbac Lab., Carros, France), an animal anesthetic, was intraperitoneally injected at a dose of 25 mg/kg. Thereafter, saline containing a 1% (v/v) fluorescent solution (fluorescein sodium salt, Tokyo Kasei Kogyo Co., Tokyo, Japan) was applied to the eyes at a dose of 5 μl/eye. The eyes thus treated were closed and fixed with a tape. After 1 hour, the remaining fluorescent solution was removed using a cotton swab (FIG. 142). […]

[2] = Stability in aqueous solution, amount of related substances under long-term storage conditions; type: physicochemical; details: glass vial, 25° C., 75% RH
Experimental: In order to confirm the stability of each test substance in an aqueous solution, […] of each sample was dissolved in 1 ml of water to a concentration of 1 mg/ml, which was then charged to a glass vial, plugged with a rubber cap, sealed with an aluminum cap, and stored under long-term storage conditions (25° C., 75% RH). The stability of the test substance was evaluated by measuring the amount of related substances at the time of one week, two weeks, four weeks, eight weeks, and twelve weeks under the long-term storage conditions.

[3] = study of YDE-029 to YDE-043 (Table 17)
[4] = study of YDE-001 to YDE-028 (Table 16)

| Molecule | Permeability of fluorescent dye (%) [1, 3] [%] | Amount of related substances (%; after 12 weeks) [2] [%] | Permeability of fluorescent dye (%) [1, 4] [%] |
| --- | --- | --- | --- |
| CC(C)C[C@H](NC(=O)CNC(=O)[C@H](CC(C)C)NC(=O)[C@H](CCC(N)=O)NC(=O)CNC(=O)[C@@H]1C[C@@H](F)CN1)C(=O)N[C@@H](C)C(=O)NCC(=O)N1CCC[C@H]1C(=O)N[C@@H](CCCCN)C(=O)O [YDE-039, (4-Fluoro)Pro-Gly-Gln-Leu-Gly-Leu-Ala-Gly-Pro-Lys] (H-[Pro(trans-4-F)]GQLGLAGPK-OH) | 29.94 ± 11.40 |  |  |
| CC(C)C[C@H](NC(=O)CNC(=O)[C@H](CCC(=O)O)NC(=O)[C@H](CCC(N)=O)NC(=O)CNC(=O)[C@@H]1C[C@@H](O)CN1)C(=O)N[C@@H](C)C(=O)NCC(=O)N1CCC[C@H]1C(=O)N[C@@H](CCCCN)C(=O)O [YDE-001, HyP-Gly-Gln-Glu-Gly-Leu-Ala-Gly-Pro-Lys] (H-[Hyp]GQEGLAGPK-OH) |  | 3.92 | 25.49 ± 11.62 |
| CC(C)C[C@H](NC(=O)CNC(=O)[C@H](Cc1ccc(O)cc1)NC(=O)[C@H](CCC(N)=O)NC(=O)CNC(=O)[C@@H]1C[C@@H](O)CN1)C(=O)N[C@@H](C)C(=O)NCC(=O)N1CCC[C@H]1C(=O)N[C@@H](CCCCN)C(=O)O [YDE-013, HyP-Gly-Gln-Tyr-Gly-Leu-Ala-Gly-Pro-Lys] (H-[Hyp]GQYGLAGPK-OH) |  | 5.92 | 32.24 ± 7.84 |
| CC(C)C[C@H](NC(=O)[C@H](CCC(N)=O)NC(=O)CNC(=O)[C@@H]1C[C@@H](O)CN1)C(=O)NCC(=O)O [YDE-043, HyP-Gly-Gln-Leu-Gly] (H-[Hyp]GQLG-OH) | 19.04 ± 7.36 |  |  |
| CC(C)C[C@H](NC(=O)CNC(=O)[C@H](Cc1ccccc1)NC(=O)[C@H](CCC(N)=O)NC(=O)CNC(=O)[C@@H]1C[C@@H](O)CN1)C(=O)N[C@@H](C)C(=O)NCC(=O)N1CCC[C@H]1C(=O)N[C@@H](CCCCN)C(=O)O [YDE-012, HyP-Gly-Gln-Phe-Gly-Leu-Ala-Gly-Pro-Lys] (H-[Hyp]GQFGLAGPK-OH) |  | 3.57 | 31.01 ± 11.38 |
| CC(C)C[C@H](NC(=O)CNC(=O)[C@H](CCO)NC(=O)[C@H](CCC(N)=O)NC(=O)CNC(=O)[C@@H]1C[C@@H](O)CN1)C(=O)N[C@@H](C)C(=O)NCC(=O)N1CCC[C@H]1C(=O)N[C@@H](CCCCN)C(=O)O [YDE-026, HyP-Gly-Gln-Ser(Homo)-Gly-Leu-Ala-Gly-Pro-Lys] (H-[Hyp]GQ[hSer]GLAGPK-OH) |  | 10.15 | 22.63 ± 11.23 |
| CC(C)C[C@H](NC(=O)[C@@H](NC(=O)[C@H](CC(=O)O)NC(=O)[C@H](CCC(N)=O)NC(=O)CNC(=O)[C@@H]1C[C@@H](O)CN1)C(C)C)C(=O)N[C@@H](C)C(=O)NCC(=O)N1CCC[C@H]1C(=O)N[C@@H](CCCCN)C(=O)O [YDE-015, HyP-Gly-Gln-Asp-Val-Leu-Ala-Gly-Pro-Lys] (H-[Hyp]GQDVLAGPK-OH) |  | 13.05 | 15.95 ± 6.48 |
| CC(C)C[C@H](NC(=O)CNC(=O)[C@H](CCC(N)=O)NC(=O)[C@H](CCC(N)=O)NC(=O)CNC(=O)[C@@H]1C[C@@H](O)CN1)C(=O)N[C@@H](C)C(=O)NCC(=O)N1CCC[C@H]1C(=O)N[C@@H](CCCCN)C(=O)O [YDE-003, HyP-Gly-Gln-Gln-Gly-Leu-Ala-Gly-Pro-Lys] (H-[Hyp]GQQGLAGPK-OH) |  | 6.86 | 40.45 ± 6.46 |
| CC(C)C[C@H](NC(=O)CNC(=O)[C@@H](NC(=O)[C@H](CCC(N)=O)NC(=O)CNC(=O)[C@@H]1C[C@@H](O)CN1)C(C)O)C(=O)N[C@@H](C)C(=O)NCC(=O)N1CCC[C@H]1C(=O)N[C@@H](CCCCN)C(=O)O (stereo partly drawn) [YDE-007, HyP-Gly-Gln-Thr-Gly-Leu-Ala-Gly-Pro-Lys] (H-[Hyp]GQ[Thr(3ξ)]GLAGPK-OH) |  | 3.76 | 32.79 ± 10.77 |
| CC(C)C[C@H](NC(=O)[C@@H](NC(=O)[C@H](CC(=O)O)NC(=O)[C@H](CCC(N)=O)NC(=O)CNC(=O)[C@@H]1C[C@@H](O)CN1)C(C)O)C(=O)N[C@@H](C)C(=O)NCC(=O)N1CCC[C@H]1C(=O)N[C@@H](CCCCN)C(=O)O (stereo partly drawn) [YDE-024, HyP-Gly-Gln-Asp-Thr-Leu-Ala-Gly-Pro-Lys] (H-[Hyp]GQD[Thr(3ξ)]LAGPK-OH) |  | 20.59 | 30.63 ± 10.41 |
| CC(C)C[C@H](NC(=O)CNC(=O)[C@H](CCCCN)NC(=O)[C@H](CCC(N)=O)NC(=O)CNC(=O)[C@@H]1C[C@@H](O)CN1)C(=O)N[C@@H](C)C(=O)NCC(=O)N1CCC[C@H]1C(=O)N[C@@H](CCCCN)C(=O)O [YDE-005, HyP-Gly-Gln-Lys-Gly-Leu-Ala-Gly-Pro-Lys] (H-[Hyp]GQKGLAGPK-OH) |  | 2.97 | 37.98 ± 11.53 |
| CC(C)C[C@H](NC(=O)[C@H](C)NC(=O)[C@H](CC(=O)O)NC(=O)[C@H](CCC(N)=O)NC(=O)CNC(=O)[C@@H]1C[C@@H](O)CN1)C(=O)N[C@@H](C)C(=O)NCC(=O)N1CCC[C@H]1C(=O)N[C@@H](CCCCN)C(=O)O [YDE-018, HyP-Gly-Gln-Asp-Ala-Leu-Ala-Gly-Pro-Lys] (H-[Hyp]GQDALAGPK-OH) |  | 25.39 | 38.19 ± 10.96 |
| PGQLGLAGPK [YDE-037, Pro-Gly-Gln-Leu-Gly-Leu-Ala-Gly-Pro-Lys] | 36.30 ± 9.75 |  |  |
| CC(C)C[C@H](NC(=O)CNC(=O)[C@H](CC(C)C)NC(=O)[C@H](CCC(N)=O)NC(=O)CNC(=O)[C@@H]1C[C@@H](O)CN1)C(=O)O [YDE-042, HyP-Gly-Gln-Leu-Gly-Leu] (H-[Hyp]GQLGL-OH) | 20.72 ± 11.37 |  |  |
| CC(C)C[C@H](NC(=O)CNC(=O)[C@H](CC(C)C)NC(=O)[C@H](CCC(N)=O)NC(=O)CNC(=O)[C@@H]1CC(C)(C)CN1)C(=O)N[C@@H](C)C(=O)NCC(=O)N1CCC[C@H]1C(=O)N[C@@H](CCCCN)C(=O)O [YDE-040, (4-Dimethyl)Pro-Gly-Gln-Leu-Gly-Leu-Ala-Gly-Pro-Lys] (H-[Pro(4,4-Me2)]GQLGLAGPK-OH) | 18.33 ± 9.41 |  |  |
| CC(C)C[C@H](NC(=O)CNC(=O)[C@H](CC(C)C)NC(=O)[C@H](CCC(N)=O)NC(=O)CNC(=O)[C@@H]1CC(=O)CN1)C(=O)N[C@@H](C)C(=O)NCC(=O)N1CCC[C@H]1C(=O)N[C@@H](CCCCN)C(=O)O [YDE-035, (4-oxo)Pro-Gly-Gln-Leu-Gly-Leu-Ala-Gly-Pro-Lys] (H-[Pro(4-oxo)]GQLGLAGPK-OH) | 27.62 ± 6.51 |  |  |
| CC(C)C[C@H](NC(=O)CNC(=O)[C@H](CC(C)C)NC(=O)[C@H](CCC(N)=O)NC(=O)CNC(=O)[C@@H]1C[C@@H](O)CN1)C(=O)N[C@@H](C)C(=O)NCC(=O)N1CCC[C@H]1C(=O)N[C@@H](CCC(=O)O)C(=O)O [YDE-031, HyP-Gly-Gln-Leu-Gly-Leu-Ala-Gly-Pro-Glu] (H-[Hyp]GQLGLAGPE-OH) | 33.35 ± 11.01 |  |  |
